Experimental data taken from patent US6239107A, “Conjugates of lipophilic moieties and fragments of vasoactive intestinal peptide (VIP)” (Yeda Research & Development Co., Ltd., priority 1996, dated 2001).
Non-standard residues stand in square brackets, D forms with d. Residues, ends and D or L forms follow the SMILES beside them. *: point of attachment. Stearoyl = CCCCCCCCCCCCCCCCCC(=O)*; Lauroyl = CCCCCCCCCCCC(=O)*

Legend:
[1] = tested on: Apolipoprotein E-deficient newborn mice; assay: Acquisition of developmental milestones in a model for mental retardation; assay type: in vivo; conditions: ApoE deficient newborn mice, s.c. injection
Description: It has recently been discovered that mice deficient in apolipoprotein E (ApoE) (Plump et al., Cell, 71:343-363 (1992)) are retarded in their acquisition of developmental milestones.
8 newborn normal mice were injected (s.c. 1.2 μg 120 μu) with St-Lys-Lys-Tyr-Leu-NH2 or with saline. 8 ApoE deficient newborn mice were treated similarly.

[2] = same amounts of radiolabeled conjugate; Gozes et al., Endocrinology 134:2121-2125 (1994); cited from earlier work
[3] = tested on: rat cerebral cortical cell cultures (neurons) treated with β-amyloid peptide (amino acids 25-35); assay: Neuronal survival assay, protection against β-amyloid toxicity; assay type: cell-based; conditions: 5 days
Description: β-Amyloid peptide is known to be involved in Alzheimer's disease and is a toxic substance to neurons grown in culture (Pike et al., J. of Nezarosci., 13(4), 1676-1687 (1993); Yankner et al., Science, 250:279-282 (1990); Gozes et. al., Proc. Natl. Acad. Sci. USA, 93:[…] (1996)).
Rat cerebral cortical cell cultures were prepared by a slight modification of the techniques described by Forsythe and Westbrook (J. Physiol. Lord. 365:515, (1988)), in which cerebral cortex was used instead of hippocampus and newborn rats were utilized instead of E16 mice. Cerebral cortical cells (1.5-15×10^5 cells/35 mm dish) were plated on confluent cerebral cortical astrocyte feeder cultures as described (Gozes et al., J. Pharmacol Erp. Therap., 257:959-966 (1991)). The culture medium was DMEM-(Dulbeco Modified Eagle Medium) containing 5% horse serum and N3 [media supplement containing a hormone cocktail, according to (Romijn et al., Brain Res., 254:(4),583-589 (1981))]. After eight days growth in vitro, the cultures were given a complete change of medium and then were treated with the β-amyloid peptide (amino acids 25-35) for 5 days.
The β-amyloid peptide fragment was dissolved in water to a finalconcentration of 2.5 mM. […] Neurons were counted without knowledge of type of treatment as before. […]

[4] = Biodistribution to brain after intranasal application of radioiodinated conjugate; assay type: in vivo, rat; conditions: thirty minutes after application, FIG. 15
Description: St-Lys-Lys-Tyr-Leu-NH2 (SEQ ID NO:6) was radioiodinated by using the chloramine T methods as described in Gozes et al., Endocrinology, 134:2121-2125 (1994) and about 7.8×10^6 cpm/2 μl 5% Sefsol™, 20% isopropanol/rat were applied intranasally to 250-300 g rats. Animals were sacrificed 30 minutes following drug administration and the frontal cortex was removed, weighed and counted for radioactivity in a gamma counter. Radioactive tissue samples (containing 1400 cpm/gram sample) were thereafter homogenized and subjected to centrifugation (5,400 g for 25 min.). Supernatants were then subjected to HPLC analysis against St-Lys-Lys-Tyr-Leu-NH2 (SEQ ID NO:6) as a marker (eluting using an acetonitrile gradient at fraction 25). Samples were monitored for radioactivity in a gamma counter.

[5] = tested on: male rats (Wistar) injected i.c.v. with the cholinergic blocker AF64A; conditions: rat, in vivo
Description: In vivo Model for Cholinergic Inhibition. 18 Male rats (Wistar, 250-300 g) were injected intracerebroventricularly (i.c.v.) at a rate of 0.21 μl/min., using plastic tubing (PE-20) attached to 25G needle; controls received an injection of saline 2 μl/side, experimental animals received injections of the cholinergic blocker (ethylcholine aziridium) AF64A (3 nmol/2 μl/side).
Drug treatment was initiated 7-10 days after AF64A injection. Animals were divided into two equal groups. Test group received daily nasal administration of St-Lys-Lys-Tyr-Leu-NH2 (SEQ ID NO:6) dissolved in 10% Sefsol™ and 40% isopropanol at a concentration of 10 μg/40 μl (20 μl administered through each nostril). […]
Rats were placed in a circular pool, 1.26 m in diameter, 0.2 m deep, equipped with a clear plexiglas column, with a 13.3 cm platform reaching just below the surface of the water (22-24° C). […] The latency of reaching the platform was recorded for each rat (in seconds) and the changes over days of training were graphed, which reflect learning and memory.
FIG. 3 depicts the effects of St-Lys-Lys-Tyr-D-Ala-NH2 (indicated KKYO in the figure) on learning and memory in the Alzheimer's in vivo test (AF64A-cholinotoxicity test) as described above. […] Following this test the platform is placed back in the water pool, but this time it is visible to the swimming rat and the time required to reach it is measured. […]

For St-Nle^17 -VIP-NH2, the “forelimb placing behavior acquisition” value ([1]; versus untreated ApoE deficient mice, FIGS. 10 and 11) is given as “improved their placing acquisition essentially to the level of control”, the cliff avoidance acquisition ([1]; FIGS. 12 and 13) is given as “even better cliff avoidance acquisition than normal controls or similar cliff avoidance behavior to control” and the “radioactivity obtained in the intestine” value [2] is given as 3700 cpm/g.

With `CCCCCCCCCCCC(=O)N[C@@H](CCCCN)C(=O)N[C@@H](CCCCN)C(=O)N[C@@H](Cc1ccc(O)cc1)C(=O)N[C@@H](CC(C)C)C(N)=O` [Lau-Lys-Lys-Tyr-Leu-NH2] (Lauroyl-KKYL-NH2) the “Active concentration (M)” value ([3]; added together with 25 μM β-amyloid peptide (25-35), NSE-stained neuron counts) was 10^-11 -10^-10 M and the “Neuronal survival (%)” value ([3]; at the active concentration, with 25 μM β-amyloid peptide (25-35), as compared to control) was 83-84%.

In the case of `CCCCCCCCCCCCCCCCCC(=O)N[C@@H](CCCCN)C(=O)N[C@@H](CCCCN)C(=O)N[C@@H](Cc1ccc(O)cc1)C(=O)N[C@@H](CC(C)C)C(N)=O` [St-Lys-Lys-Tyr-Leu-NH2] (Stearoyl-KKYL-NH2), the “intact conjugate in brain extract by HPLC” value [4] is reported as “could be observed in the brain”.

For `CCCCCCCCCCCCCCCCCC(=O)N[C@@H](CCCCN)C(=O)N[C@@H](CCCCN)C(=O)N[C@@H](Cc1ccc(O)cc1)C(=O)N[C@H](C)C(N)=O` [St-Lys-Lys-Tyr-D-Ala-NH2] (Stearoyl-KKY[dA]-NH2), the “time required to reach the visible platform (possible motor deficits)” value [5] was “no differences between the groups”.
